Results reported in BindingDB's records for doi:10.1016/j.bmcl.2003.09.058 (Pharmacor, 2003).

Each compound was assayed against T1, Dimer of Gag-Pol polyprotein [501-599] (Human immunodeficiency virus 1, UniProt P03367) (assay: Protease Inhibition Assay). Conditions: pH 4.7; 30 °C.
T1 construct: 501-599
Method: HIV-1 protease activity was measured by a continuous fluorometric assay using the internally quenched fluorogenic substrate DABCYL-Ser-Gln-Asn-Tyr-Pro-Ile-Val-Gln-EDANS. The proteolytic activity can be monitored by the increase in fluorescence intensity, and the protease products were analyzed by HPLC.

SMILES | Ki
Cc1ccc(S(=O)(=O)N(CC(C)C)[C@@H](CCCCNC(=O)Cc2ccccc2)C(=O)O)cc1 [(2S)-2-[(4-methylbenzene)(2-methylpropyl)sulfonamido]-6-(1-phenylacetamido)hexanoic acid] | > 300 nM
Cc1ccc(S(=O)(=O)N(CC(C)C)[C@@H](CCCCNC(=O)CCCc2ccccc2)C(=O)O)cc1 [(2S)-2-[(4-methylbenzene)(2-methylpropyl)sulfonamido]-6-(4-phenylbutanamido)hexanoic acid] | > 300 nM
Cc1ccc(S(=O)(=O)N(CC(C)C)[C@@H](CCCCNC(=O)c2ccccc2)C(=O)O)cc1 [(2S)-2-[(4-methylbenzene)(2-methylpropyl)sulfonamido]-6-(phenylformamido)hexanoic acid] | > 300 nM
Cc1ccc(S(=O)(=O)N(CC(C)C)[C@@H](CCCCNC(=O)C2CC2c2ccccc2)C(=O)O)cc1 (stereo partly drawn) [(2S)-2-[(4-methylbenzene)(2-methylpropyl)sulfonamido]-6-[(2-phenylcyclopropyl)formamido]hexanoic acid] | > 300 nM
Cc1ccc(S(=O)(=O)N(CC(C)C)[C@@H](CCCCNC(=O)/C=C/c2ccccc2)C(=O)O)cc1 [(2S)-2-[(4-methylbenzene)(2-methylpropyl)sulfonamido]-6-[(2E)-3-phenylprop-2-enamido]hexanoic acid] | > 300 nM
Cc1ccc(S(=O)(=O)N(CC(C)C)[C@@H](CCCCNC(=O)C(Cc2ccccc2)C(C)(C)C)C(=O)O)cc1 (stereo partly drawn) [(2S)-6-(2-benzyl-3,3-dimethylbutanamido)-2-[(4-methylbenzene)(2-methylpropyl)sulfonamido]hexanoic acid] | > 300 nM
Cc1ccc(S(=O)(=O)N(CC(C)C)[C@@H](CCCCNC(=O)OCc2ccccc2)C(=O)O)cc1 [(2S)-6-{[(benzyloxy)carbonyl]amino}-2-[(4-methylbenzene)(2-methylpropyl)sulfonamido]hexanoic acid] | > 300 nM
